Assay results as given in the supplement of paper PMC10307832.

What was measured:
Test in all cases: relative viability (nuclei count vs DMSO), 5 days (fraction); higher = more cells survive
[1] = compound: CCn1c(-c2nonc2N)nc2cnc(Oc3cccc(NC(=O)c4ccc(OCCN5CCOCC5)cc4)c3)cc21 + NC(=O)Nc1cc(-c2cccc(F)c2)sc1C(=O)N[C@H]1CCCNC1 [AZD7762] (partner 0.2 µM)
Summary of the method: (§1)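 Values are medians from duplicate plates. Each reflects relative viability, defined as the nuclei count of treated wells over that of vehicle wells. Lung cancer cell lines in 1536-well plates were pin-tool dosed one day after seeding with one drug alone or with a fixed anchor-drug dose plus five library-drug doses (not always all listed) in √10 steps, then fixed, stained and imaged at 4× after 5 days.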

[2] = compound: CCC1=CN=CN=C1N2CCN(CC2)CC3=NC4=C(N3)C=C(C=C4)C(F)(F)F + NC(=O)Nc1cc(-c2cccc(F)c2)sc1C(=O)N[C@H]1CCCNC1 [AZD7762] (partner 0.2 µM)
Summary of the method: as §1

Mirin + Olaparib = compound: N=C1NC(=O)/C(=C/c2ccc(O)cc2)S1 [Mirin] + O=C(c1cc(Cc2n[nH]c(=O)c3ccccc23)ccc1F)N1CCN(C(=O)C2CC2)CC1 [Olaparib] (partner 8 µM)
Summary of the method: as §1

[3] = compound: CCC1=CN=CN=C1N2CCN(CC2)CC3=NC4=C(N3)C=C(C=C4)C(F)(F)F + Cc1nc(Nc2ncc(C(=O)Nc3c(C)cccc3Cl)s2)cc(N2CCN(CCO)CC2)n1 [Dasatinib] (partner 0.075 µM)
Summary of the method: as §1

Cell Line | relative viability ([1]; first compound 0.04 µM) | relative viability ([1]; first compound 0.1265 µM) | relative viability ([1]; first compound 0.4 µM) | relative viability ([1]; first compound 1.265 µM) | relative viability ([1]; first compound 4 µM) | relative viability ([2]; first compound 0.04 µM) | relative viability ([2]; first compound 0.1265 µM) | relative viability ([2]; first compound 0.4 µM) | relative viability ([2]; first compound 4 µM) | relative viability (Mirin + Olaparib; first compound 0.25 µM) | relative viability (Mirin + Olaparib; first compound 0.7906 µM) | relative viability (Mirin + Olaparib; first compound 2.5 µM) | relative viability (Mirin + Olaparib; first compound 7.906 µM) | relative viability (Mirin + Olaparib; first compound 25 µM) | relative viability ([3]; first compound 0.04 µM) | relative viability ([3]; first compound 0.1265 µM) | relative viability ([3]; first compound 0.4 µM) | relative viability ([3]; first compound 1.265 µM) | relative viability ([3]; first compound 4 µM) | relative viability ([2]; first compound 1.265 µM)
SW 900 | 0.668 | 0.59 | 0.647 | 0.435 | 0.495 | 0.552 | 0.571 | 0.48 | 0.702 | 0.842 | 0.959 | 0.848 | 0.913 | 0.767 | 0.601 | 0.544 | 0.571 | 0.603 | 0.448 | –
NCI-H1437 | 1.13 | 1.08 | 0.718 | 0.625 | 0.642 | 1.13 | 1.15 | 0.996 | 0.706 | 0.637 | 0.641 | 0.607 | 0.625 | 0.549 | 0.339 | 0.369 | 0.386 | 0.328 | 0.22 | 1.03
NCI-H3122 | 1.06 | 0.984 | 0.939 | 0.871 | 0.739 | 0.971 | 0.947 | 0.957 | 0.977 | 0.691 | 0.667 | 0.566 | 0.623 | 0.664 | 0.848 | 0.781 | 0.804 | 0.709 | 1.02 | 1.04
PC-14 | 0.334 | 0.323 | 0.218 | 0.215 | 0.232 | 0.317 | 0.337 | 0.338 | 0.395 | 0.25 | 0.34 | 0.313 | 0.308 | 0.271 | 0.269 | 0.258 | 0.264 | 0.218 | 0.264 | 0.387
NCI-H727 | – | 0.699 | 0.539 | 0.566 | 0.739 | 0.641 | 0.593 | 0.522 | 0.541 | 0.728 | 0.6 | 0.768 | 0.602 | 0.561 | 0.407 | 0.38 | 0.364 | – | 0.314 | 0.566
NCI-H1734 | 0.581 | 0.423 | 0.274 | 0.22 | 0.224 | 0.619 | 0.626 | 0.562 | 0.782 | 0.538 | 0.582 | 0.662 | 0.556 | 0.461 | 0.403 | 0.532 | 0.522 | 0.476 | 0.441 | 0.564
NCI-H647 | 0.523 | 0.242 | 0.249 | 0.193 | 0.121 | 0.438 | 0.476 | 0.457 | 0.554 | 0.567 | 0.617 | 0.617 | 0.479 | 0.164 | 0.166 | 0.174 | 0.186 | 0.223 | 0.201 | 0.471
NCI-H1944 | 0.5 | 0.524 | 0.297 | 0.249 | 0.202 | 0.757 | 0.512 | 0.465 | 0.607 | 0.377 | 0.421 | 0.391 | 0.328 | 0.296 | 0.228 | 0.217 | 0.211 | 0.208 | 0.22 | 0.379
LK-2 | 0.525 | 0.583 | 0.156 | 0.113 | 0.284 | 0.414 | 0.476 | 0.353 | 0.466 | 0.629 | 0.454 | 0.695 | 0.489 | 0.546 | 0.325 | 0.314 | 0.257 | 0.258 | 0.318 | 0.209
HCC-15 | 1.3 | 1.51 | 0.974 | 1.05 | 0.987 | 1.3 | 1.11 | 1.1 | 1.32 | 0.718 | 0.675 | 0.73 | 0.536 | 0.502 | 0.632 | 0.552 | 0.597 | 0.624 | 0.594 | 1.32
NCI-H838 | 0.946 | 0.725 | 0.669 | 0.635 | 0.691 | 1.04 | 0.877 | 0.904 | 0.948 | 0.788 | 0.811 | 0.829 | 0.749 | 0.529 | 0.295 | 0.237 | 0.28 | 0.26 | 0.289 | 0.829
HOP-62 | 0.774 | 0.443 | 0.468 | 0.227 | 0.19 | 0.491 | 0.439 | 0.602 | 0.746 | 0.548 | 0.409 | 0.219 | 0.381 | 0.519 | 0.589 | 0.584 | 0.539 | 0.626 | 0.653 | 0.558
NCI-H322M | 0.587 | 0.556 | 0.561 | 0.496 | 0.445 | 0.538 | 0.591 | 0.572 | 0.653 | 0.81 | 0.816 | 0.726 | 0.712 | 0.583 | 0.261 | 0.257 | 0.258 | 0.239 | 0.249 | 0.511
NCI-H1395 | 0.356 | 0.36 | 0.359 | 0.352 | 0.333 | 0.398 | 0.349 | 0.37 | 0.474 | 0.427 | – | 0.478 | 0.426 | 0.425 | 0.441 | 0.405 | 0.371 | 0.442 | 0.384 | –
NCI-H650 | 1.15 | 0.871 | 0.46 | 0.263 | 0.354 | 0.844 | 0.909 | 1.01 | 0.946 | 0.365 | 0.433 | 0.352 | 0.307 | 0.366 | 0.4 | 0.413 | 0.456 | 0.441 | 0.494 | 1.29
EKVX | 0.927 | 0.718 | 0.478 | 0.476 | 0.621 | 0.724 | 0.712 | 0.756 | 0.777 | 0.857 | 0.916 | 0.839 | 0.758 | 0.993 | 0.558 | 0.484 | 0.527 | 0.491 | 0.415 | 0.646
NCI-H2342 | 0.572 | 0.551 | 0.361 | 0.422 | 0.459 | 0.441 | 0.389 | 0.467 | 0.419 | 0.441 | 0.442 | 0.427 | – | 0.368 | 0.317 | 0.316 | 0.327 | 0.32 | 0.338 | 0.397
LCLC-97TM1 | 0.273 | 0.425 | – | – | 0.135 | 0.263 | 0.206 | 0.22 | 0.274 | 0.386 | 0.413 | 0.486 | 0.244 | 0.166 | 0.881 | 0.765 | 0.668 | 0.816 | 0.897 | 0.309
NCI-H1355 | 0.676 | 0.684 | 0.369 | 0.313 | 0.217 | 0.744 | 0.722 | 0.638 | 0.637 | 0.681 | 0.747 | 0.692 | 0.755 | 0.745 | 0.761 | 0.631 | 0.621 | 0.657 | 0.735 | 0.627
NCI-H1666 | 0.907 | 0.875 | 0.694 | 0.383 | 0.477 | 0.864 | 0.77 | 0.767 | 0.815 | 0.763 | 0.797 | 0.737 | 0.71 | 0.728 | 0.777 | 0.685 | 0.742 | 0.783 | 0.865 | 0.716
EPLC-272H | 0.211 | 0.199 | 0.153 | 0.128 | 0.0806 | 0.172 | 0.209 | 0.207 | 0.262 | 0.867 | 0.682 | 0.812 | 0.661 | 0.228 | 0.332 | 0.33 | 0.313 | 0.291 | 0.421 | 0.245
ChaGo-K-1 | 0.978 | 0.867 | 0.738 | 0.596 | 0.581 | 0.835 | 0.836 | 0.881 | 0.961 | 0.415 | 0.363 | 0.43 | 0.381 | 0.253 | 0.654 | 0.635 | 0.555 | 0.615 | 0.492 | 0.816
NCI-H1651 | 0.566 | 0.477 | 0.373 | 0.146 | 0.282 | 0.452 | 0.433 | 0.436 | 0.524 | 0.182 | 0.208 | 0.182 | 0.167 | 0.199 | 0.542 | 0.294 | 0.403 | 0.386 | 0.368 | 0.484
NCI-H2087 | 1.45 | 1.11 | 1.13 | 0.845 | 0.867 | 1.34 | 1.26 | 1.43 | 1.21 | 0.602 | 0.559 | 0.611 | 0.671 | 0.498 | 0.729 | 0.809 | 0.529 | 0.508 | 0.598 | 1.17
RERF-LC-KJ | 0.941 | 0.956 | 0.448 | 0.298 | 0.538 | 0.795 | 0.953 | 0.976 | 0.952 | 1.03 | 1.12 | 0.941 | 0.972 | 0.875 | 0.768 | 0.714 | 0.846 | 0.69 | 0.696 | 0.97
LOU-NH91 | 0.782 | 0.631 | 0.421 | 0.432 | 0.424 | 0.758 | 0.743 | 0.72 | 0.831 | 0.927 | 0.976 | 0.946 | 0.943 | 1.09 | 0.477 | 0.466 | 0.485 | 0.533 | 0.568 | 0.634
PC-3 [JPC-3] | 0.892 | 0.889 | 0.828 | 0.56 | 0.658 | – | 0.688 | 0.69 | 0.808 | 1.14 | 1.23 | 1.19 | 1.21 | 1.23 | 0.978 | 0.935 | 0.889 | 1 | 0.969 | 0.683
